Data taken from BindingDB's records for PubMed 36332550 (Peking Union Medical College, 2022).

Assays:
Zinc finger protein GLI1 [1] = molecular target: T1, Zinc finger protein GLI1 (Homo sapiens, UniProt P08151); assay: Inhibition of GLI1-mediated transcriptional activity in human HaCaT cells coexpressing luciferase
T1 sequence (P08151 whole entry): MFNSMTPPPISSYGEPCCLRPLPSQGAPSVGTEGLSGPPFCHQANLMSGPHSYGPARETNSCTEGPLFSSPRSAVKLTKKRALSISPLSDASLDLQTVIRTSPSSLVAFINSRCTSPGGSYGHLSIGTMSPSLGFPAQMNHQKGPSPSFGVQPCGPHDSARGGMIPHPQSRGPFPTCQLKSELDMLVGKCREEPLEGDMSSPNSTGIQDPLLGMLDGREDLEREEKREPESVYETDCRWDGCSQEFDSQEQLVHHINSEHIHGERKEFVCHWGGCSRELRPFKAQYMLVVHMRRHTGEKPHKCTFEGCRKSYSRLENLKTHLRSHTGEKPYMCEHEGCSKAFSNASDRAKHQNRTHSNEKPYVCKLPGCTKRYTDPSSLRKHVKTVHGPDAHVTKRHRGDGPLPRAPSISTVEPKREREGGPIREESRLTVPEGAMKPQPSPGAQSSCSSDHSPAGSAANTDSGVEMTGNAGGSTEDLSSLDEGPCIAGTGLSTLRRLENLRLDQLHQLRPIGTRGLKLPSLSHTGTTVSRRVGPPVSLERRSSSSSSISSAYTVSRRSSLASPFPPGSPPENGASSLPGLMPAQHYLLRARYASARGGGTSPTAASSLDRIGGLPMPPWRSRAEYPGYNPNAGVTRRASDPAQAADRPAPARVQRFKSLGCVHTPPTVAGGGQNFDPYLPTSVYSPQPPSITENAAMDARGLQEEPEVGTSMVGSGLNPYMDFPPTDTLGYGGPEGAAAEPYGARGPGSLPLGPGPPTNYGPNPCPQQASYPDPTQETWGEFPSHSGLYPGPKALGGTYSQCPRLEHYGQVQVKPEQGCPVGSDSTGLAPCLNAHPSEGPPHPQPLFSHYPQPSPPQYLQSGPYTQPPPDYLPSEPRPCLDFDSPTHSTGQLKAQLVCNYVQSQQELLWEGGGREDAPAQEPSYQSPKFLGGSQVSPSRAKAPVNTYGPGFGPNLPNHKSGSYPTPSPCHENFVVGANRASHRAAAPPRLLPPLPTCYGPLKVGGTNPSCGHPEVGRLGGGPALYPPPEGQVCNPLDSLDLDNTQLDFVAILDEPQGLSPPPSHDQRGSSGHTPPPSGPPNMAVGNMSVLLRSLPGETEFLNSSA

Zinc finger protein GLI1 [2] = molecular target: T1, Zinc finger protein GLI1; assay: Inhibition of GLI1 (unknown origin) transcriptional activity

SMILES | IC50 (Zinc finger protein GLI1 [1]) [µM] | IC50 (Zinc finger protein GLI1 [2]) [µM]
O[C@H]1[C@H]2c3cc4c(cc3CN3CCC(=C[C@@H]1O)[C@H]23)OCO4 [9,10-(methylenedioxy)-3,12-didehydrogalanthan-1alpha,2beta-diol] | 19 | –
C[C@]12C(=O)C=CCC1=CC[C@@H]1[C@@H]2CC[C@]2(O)C(=O)O[C@@]3(C)[C@H]4C[C@]5(C)[C@@H](CO[C@@]16O[C@@]32[C@H]5C6=O)C(=O)O4 [NSC-287088] | – | 0.6
C[C@]12C(=O)CC=CC1=CC[C@@H]1[C@@H]2CC[C@]2(O)C(=O)O[C@@]3(C)[C@H]4C[C@]5(C)[C@@H](CO[C@@]16O[C@@]32[C@H]5C6=O)C(=O)O4 | – | 4.2
CO[C@H]1C=C[C@@]23c4cc5c(cc4CN(C[C@@H]2O)[C@H]3C1)OCO5 [CHEBI:3914] | 4.7 | –
C[C@@]12C[C@H]3OC(=O)[C@@H]1CO[C@]14O[C@@]5([C@H]2C1=O)[C@@]3(C)OC(=O)[C@@]5(O)CC[C@H]1[C@H]4C[C@H]2O[C@]23CC=CC(=O)[C@]13C | – | 0.7
